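How tested: cells in 96-well plates exposed to compound for 48 hours at five concentrations. At the GI50, growth is halved. TGI: total growth inhibition.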
What was measured:
Experiment in all cases: NCI anticancer screen, dose series, 48 h; in the data active means GI50 below about 0.43 µM; inactive means the rest
[1] = tested on: DU-145 prostate
[2] = tested on: M14 melanoma
[3] = tested on: RPMI-8226 leukemia
[4] = tested on: SNB-19 CNS
[5] = tested on: HT29 colon
[6] = tested on: MDA-MB-231 breast
[7] = tested on: HL-60(TB) leukemia
[8] = tested on: EKVX NSCLC
[9] = tested on: MALME-3M melanoma
[10] = tested on: SK-MEL-2 melanoma
[11] = tested on: HCT-116 colon
[12] = tested on: HCT-15 colon
[13] = tested on: A498 renal
[14] = tested on: U251 CNS
[15] = tested on: UO-31 renal
[16] = tested on: HS 578T breast
[17] = tested on: IGROV1 ovarian
[18] = tested on: MOLT-4 leukemia
[19] = tested on: UACC-257 melanoma
[20] = tested on: NCI-H522 lung
[21] = tested on: SK-OV-3 ovarian
[22] = tested on: OVCAR-8 ovarian
[23] = tested on: KM12 colon
[24] = tested on: ACHN renal
[25] = tested on: A549 NSCLC
[26] = tested on: COLO 205 colon
[27] = tested on: TK-10 renal
[28] = tested on: NCI-H23 lung
[29] = tested on: SK-MEL-28 melanoma
[30] = tested on: BT-549 breast
[31] = tested on: OVCAR-3 ovarian
[32] = tested on: RXF 393 renal
[33] = tested on: HOP-62 NSCLC
[34] = tested on: SNB-75 CNS
[35] = tested on: PC-3 prostate
[36] = tested on: T-47D breast
[37] = tested on: HCC-2998 colon
[38] = tested on: OVCAR-5 ovarian
[39] = tested on: NCI-H460 lung
[40] = tested on: SN12C renal
[41] = tested on: LOX IMVI melanoma
[42] = tested on: SF-539 CNS
[43] = tested on: UACC-62 melanoma
[44] = tested on: CCRF-CEM leukemia
[45] = tested on: SR leukemia
[46] = tested on: OVCAR-4 ovarian
[47] = tested on: SF-268 CNS
[48] = tested on: MDA-MB-435
[49] = tested on: K-562 leukemia
[50] = tested on: MCF7 breast
[51] = tested on: SF-295 CNS
[52] = tested on: SW-620 colon
[53] = tested on: SK-MEL-5 melanoma
[54] = tested on: NCI/ADR-RES ovarian
[55] = tested on: NCI-H226 lung
[56] = tested on: CAKI-1 renal
[57] = tested on: 786-0 renal
[58] = tested on: HOP-92 NSCLC

Oc1[nH]c2ccccc2c1/C=c1/cc2c(c(-c3ccc(C(F)(F)F)cc3)n1)=Nc1ccccc1-2
7.69 µM: TGI [31]
56.6 µM: TGI [21]
9.25 µM: TGI [7]
22.5 µM: TGI [41]
19.3 µM: TGI [53]
34.8 µM: TGI [1]
69.9 µM: TGI [16]
inactive: GI50 [1] 8.93 µM | GI50 [2] 3.89 µM | GI50 [3] 2.93 µM | GI50 [4] 6.81 µM | GI50 [5] 3.16 µM | GI50 [6] 1.89 µM | GI50 [7] 3.41 µM | GI50 [8] 10.5 µM | GI50 [9] 9.14 µM | GI50 [10] 8.66 µM | GI50 [11] 2.9 µM | GI50 [12] 3.59 µM | GI50 [13] 5.2 µM | GI50 [14] 4.46 µM | GI50 [15] 2.55 µM | GI50 [16] 10.3 µM | GI50 [17] 8.25 µM | GI50 [18] 3.32 µM | GI50 [19] 13.6 µM | GI50 [20] 1.67 µM | GI50 [21] 13.8 µM | GI50 [22] 4.99 µM | GI50 [23] 2.16 µM | GI50 [24] 2.72 µM | GI50 [25] 4.79 µM | GI50 [26] 1.95 µM | GI50 [27] 5.54 µM | GI50 [28] 10.9 µM | GI50 [29] 1.84 µM | GI50 [30] 4.17 µM | GI50 [31] 2.36 µM | GI50 [32] 3.08 µM | GI50 [33] 12.3 µM | GI50 [34] 1.45 µM | GI50 [35] 2.59 µM | GI50 [36] 3.05 µM | GI50 [37] 9.32 µM | GI50 [38] 11.8 µM | GI50 [39] 2.56 µM | GI50 [40] 27.9 µM | GI50 [41] 8.87 µM | GI50 [42] 16.3 µM | GI50 [43] 6.32 µM | GI50 [44] 3.06 µM | GI50 [45] 1.27 µM | GI50 [46] 2.75 µM | GI50 [47] 10.3 µM | GI50 [49] 2.57 µM | GI50 [50] 1.53 µM | GI50 [51] 2.99 µM | GI50 [52] 2.4 µM | GI50 [53] 5.28 µM | GI50 [54] 1.9 µM | GI50 [55] 36.4 µM | GI50 [56] 3.96 µM
17.4 µM: TGI [2]
10 µM: TGI [48]
27.4 µM: TGI [9]
> 100 µM: TGI [4] | TGI [8] | TGI [40] | TGI [55]
5.13 µM: TGI [26]
13.6 µM: TGI [46]
33.8 µM: TGI [38]
38.8 µM: TGI [47]
28.7 µM: TGI [10]
15.7 µM: TGI [30]
22.9 µM: TGI [27]
13 µM: TGI [52]
27.3 µM: TGI [33]
11.5 µM: TGI [24]
15.3 µM: TGI [32]
5.14 µM: TGI [50]
44.6 µM: TGI [42]
10.1 µM: TGI [11]
28.8 µM: TGI [17] | TGI [25]
21.9 µM: TGI [43]
18.8 µM: TGI [29] | TGI [54]
47.4 µM: TGI [35]
11.3 µM: TGI [45]
active: GI50 [48] 0.403 µM
10.5 µM: TGI [39]
18.3 µM: TGI [14]
15.8 µM: TGI [12]
42.3 µM: TGI [19]
20.7 µM: TGI [15] | TGI [34]
38.6 µM: TGI [13]
13.2 µM: TGI [18]
27.5 µM: TGI [56]
13.7 µM: TGI [3]
28.1 µM: TGI [22]
14.3 µM: TGI [20]
11.4 µM: TGI [5]
31.8 µM: TGI [28]
13.9 µM: TGI [6] | TGI [36]
28.4 µM: TGI [51]
24.4 µM: TGI [37]
12.2 µM: TGI [23]
14.9 µM: TGI [49]
16.4 µM: TGI [44]

COc1ccc(C(=O)C[C@]2(O)C(=O)Nc3c(Cl)ccc(Cl)c32)cc1
3.99 µM: TGI [42]
1.52 µM: TGI [13]
active: GI50 [2] 0.321 µM | GI50 [5] 0.376 µM | GI50 [7] 0.343 µM | GI50 [11] 0.406 µM | GI50 [12] 0.35 µM | GI50 [13] 0.295 µM | GI50 [20] 0.317 µM | GI50 [23] 0.39 µM | GI50 [31] 0.348 µM | GI50 [34] 0.199 µM | GI50 [39] 0.389 µM | GI50 [45] 0.243 µM | GI50 [48] 0.128 µM | GI50 [49] 0.258 µM | GI50 [50] 0.383 µM | GI50 [52] 0.379 µM | GI50 [54] 0.379 µM
0.972 µM: TGI [34]
> 53.5 µM: TGI [39]
> 77.8 µM: TGI [47]
> 40.1 µM: TGI [23]
0.396 µM: TGI [48]
> 55.7 µM: TGI [1]
30 µM: TGI [3]
22.3 µM: TGI [53]
> 100 µM: TGI [2] | TGI [4] | TGI [6] | TGI [8] | TGI [9] | TGI [10] | TGI [12] | TGI [14] | TGI [15] | TGI [16] | TGI [17] | TGI [18] | TGI [19] | TGI [21] | TGI [24] | TGI [25] | TGI [27] | TGI [28] | TGI [29] | TGI [33] | TGI [35] | TGI [36] | TGI [57] | TGI [37] | TGI [38] | TGI [40] | TGI [41] | TGI [43] | TGI [44] | TGI [45] | TGI [46] | TGI [49] | TGI [50] | TGI [51] | TGI [52] | TGI [55] | TGI [56]
> 72.9 µM: TGI [30]
inactive: GI50 [1] 1.87 µM | GI50 [3] 0.589 µM | GI50 [4] 1.05 µM | GI50 [6] 0.801 µM | GI50 [8] 0.892 µM | GI50 [9] 0.503 µM | GI50 [10] 0.627 µM | GI50 [14] 0.508 µM | GI50 [15] 1.47 µM | GI50 [16] 0.555 µM | GI50 [17] 0.531 µM | GI50 [18] 0.533 µM | GI50 [19] 50.3 µM | GI50 [21] 1.89 µM | GI50 [22] 0.92 µM | GI50 [24] 0.774 µM | GI50 [25] 0.766 µM | GI50 [26] 0.488 µM | GI50 [27] > 29.4 µM | GI50 [28] 1.51 µM | GI50 [29] 6.54 µM | GI50 [30] 0.59 µM | GI50 [33] 1.06 µM | GI50 [35] 1.16 µM | GI50 [36] 0.498 µM | GI50 [57] 2.61 µM | GI50 [37] 1.96 µM | GI50 [38] 2.43 µM | GI50 [40] 0.87 µM | GI50 [41] 0.581 µM | GI50 [42] 0.478 µM | GI50 [58] 1.41 µM | GI50 [43] 0.486 µM | GI50 [44] 0.563 µM | GI50 [46] 12 µM | GI50 [47] 1.33 µM | GI50 [51] 0.516 µM | GI50 [53] 0.573 µM | GI50 [55] 3.02 µM | GI50 [56] 0.492 µM
> 92.3 µM: TGI [58]
3.06 µM: TGI [7]
7.19 µM: TGI [31]
9.78 µM: TGI [26]
24.6 µM: TGI [11]
> 77.3 µM: TGI [22]

From PubChem BioAssay (NCI)
